Legend:
[1] = tested on: Gastric Acid Secretion Stimulated by Pentagastrin; assay: Inhibition of pentagastrin-stimulated gastric acid secretion in anesthetized rats with perfused stomach, intravenous administration; format: in vivo, SD species rats; details: SD rats, urethane anesthesia, pentagastrin 15 µg/kg/hour i.v., test drug intravenous, dose 0.1 µmol/kg
Text: (i) Method of Measurement: A cannula was inserted into a trachea of rats anesthetized with urethane (1.25 g/kg intraperitoneal administration) and abdomen was incised to expose stomach and duodenum. After ligating the cardiac portion, a polyethylene cannula was set in the forestomach portion. Further, a small incision was given to the duodenum, and a polyethylene cannula was inserted from the incised portion to a direction of the stomach inside. In order to fix the cannula, the pylorus portion was ligated. A physiological saline (adjusted to pH 7.0) was perfused from forestomach portion to the pylorus portion at a rate of 3 ml/minute. The gastric acid secretion was measured by continuously titrating the perfusate by means of a pH-stat (AUT-201, produced by Toa Electronics Ltd.). The continuous titration was performed by titrating with a 25 mM sodium hydroxide solution using a titration end point of pH 7.0. The results were determined as a gastric acid analysis at 10 minutes intervals (µEq/10 minutes). Then, pentagastrin was intravenously administered (15 µg/kg/hour). After injection of pentagastrin, the acid secretion was increased, and 60 minutes after the injection, the acid secretion reached to its maximum value and stabilized. Thereafter, a test drug was intravenously administered, and the gastric acid secretion was measured. From the gastric acid secretion amount after the test drug injection, a gastric acid secretion inhibitory ratio was calculated by taking the maximum value after the pentagastrin injection as 100%. In this test, two species of rats, i.e., Wistar species rats and SD species rats, were used as test animals, but the embodiments obtained by using the SD species rats are described below. The compounds of the present invention show from 9 to 89% gastric acid secretion inhibitory effects by the administration at a dose of 0.1 µmol/kg. The embodiments are shown below.

CCK-B receptor = target: T1, CCK-B receptor (Rattus norvegicus, UniProt P30553); assay: Binding activity to CCK-B receptor: displacement of [125I]BH.CCK-8 from rat whole brain membrane sample; design: species or system SD rats; details: rat brain membranes, [125I]BH.CCK-8, 25°C, 120 minutes; read-out: CCK-B Binding IC₅₀
T1 construct: freezed at -80°C for storage as a membrane sample; from tissue; host or cells: SD rat whole brain membrane preparation
T1 sequence (P30553 1-452): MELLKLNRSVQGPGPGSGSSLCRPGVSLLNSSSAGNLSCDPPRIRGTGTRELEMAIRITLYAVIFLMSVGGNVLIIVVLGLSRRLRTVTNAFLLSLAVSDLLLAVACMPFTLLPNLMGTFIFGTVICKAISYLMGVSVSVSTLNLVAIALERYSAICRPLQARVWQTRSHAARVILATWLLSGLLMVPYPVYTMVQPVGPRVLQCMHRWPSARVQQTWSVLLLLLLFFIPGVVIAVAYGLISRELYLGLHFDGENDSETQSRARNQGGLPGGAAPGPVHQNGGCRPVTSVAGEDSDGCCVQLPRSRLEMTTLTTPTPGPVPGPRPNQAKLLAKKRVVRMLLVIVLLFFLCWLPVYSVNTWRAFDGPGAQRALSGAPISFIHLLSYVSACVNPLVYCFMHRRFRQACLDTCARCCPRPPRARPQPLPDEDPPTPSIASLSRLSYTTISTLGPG
Description: About 100 conscious SD rats were sacrificed by decapitation, and immediately thereafter the whole brain was extracted. The whole brain was homogenized using a Teflon-glass homogenizer in a 0.32M sucrose aqueous solution in a volume of 10 times the whole brain. The resulting homogenate was centrifuged in a cooled centrifugator at 900 × g for 10 minutes, and the supernatant was further centrifuged at 11,500 × g for 15 minutes. The resulting sediment was suspended in a 0.08% Triton X-100 and a 50 mM Tris-HCl buffering solution (pH 7.4). After allowing the suspension to stand for 30 minutes, the suspension was again centrifuged at 11,500 × g for 15 minutes, and the sediment was washed twice with each of 5 mM and 50 mM Tris-HCl buffers by centrifuging operations. The resulting sediment was suspended in a 50 mM Tris-HCl buffer, and freezed at -80°C for storage as a membrane sample.
After thawing the membrane sample at room temperature, it was diluted with a 10 mM HEPES buffer (130 mM NaCl, 5 mM MgCl₂·1mM EGTA, 0.25 mg/ml bacitracin, pH 6.5) and, after incubating at 25°C for 120 minutes in the presence of [¹²⁵I]BH.CCK-8, B/F separation was performed by suction filtration. The non-specific binding was determined in the presence of 1 µM of CCK-8. The amount of the labelled ligand bonded to the receptor was measured by a γ-counter. A Ki (CCK-B) value was determined from a displacement curve of the test compound by taking the maximum binding amount of the labelled ligand to the receptor as 100%.

[2] = tested on: Gastric Acid Secretion Stimulated by Pentagastrin; assay: Inhibition of pentagastrin-stimulated gastric acid secretion in Heidenhain pouch dogs, oral administration; format: in vivo, beagle dogs; details: pentagastrin 8 µg/kg/hr infusion, test drug oral
Text: (ii) Method of Measurement: Male beagle dogs (7 to 12 kg) fasted overnight was used and subjected to peritoneotomy under GOF anesthesia. After amputating the corpus ventriculi portion parallel to the curvatura ventriculi major, a metal pouch was retained in the suture-closed epigastric region to prepare Heidenhain pouch dogs. The dogs under healthy conditions after two months from the operation were presented to the experiments. Each of the pouch dogs was used at one week intervals.
Pentagastrin was continuously infused (8 µg/kg/hr) into 3 to 5 Heidenhain pouch dogs fasted for 18 hours, and the gastric juice naturally dropped from the pouch was collected at a 15 minute interval. The acid concentration in the gastric juice was calculated from the amount of a 0.05N NaOH required for titrating up to pH of 7.0 using an automatic titration apparatus (Comtite-7, produced by Hiranuma Sangyo), and the product with the amount of the gastric juice was referred to as an acid secretion amount.
Three hours after commencement of the continuous infusion of pentagastrin, a test drug was orally administered, and an inhibitory ratio to the gastric acid secretion at 15 minute intervals was determined to evaluate the effects of the drug.

## Cc1ccccc1C(=O)CN1C(=O)[C@H](NC(=O)Nc2cccc(N(C)C)c2)N=C(c2ccccc2)c2ccccc21 [Example 3, (R)-1-[2,3-dihydro-1-(2'-methylphenacyl)-2-oxo-5-phenyl-1H-1,4-benzodiazepin-3-yl]-3-(3-dimethylaminophenyl)urea]
[1]
  Gastric Acid Secretion Inhibitory Ratio/Dose: 63% (0.1 µmol/kg)
CCK-B receptor
  IC50: 170 pM
[2]; dose 10 µmol/kg
  Gastric Acid Secretion Inhibitory Ratio/Dose: 57% (10 µmol/kg)

## Cc1ccc(C(=O)CN2C(=O)C(NC(=O)Nc3cccc(N(C)C)c3)N=C(c3ccccn3)c3ccccc32)cc1 (stereo not drawn) [Example 35, 1-[2,3-dihydro-1-(4'-methylphenacyl)-2-oxo-5-(2-pyridyl)-1H-1,4-benzodiazepin-3-yl]-3-(3-dimethylaminophenyl)urea]
[1]
  Gastric Acid Secretion Inhibitory Ratio/Dose: 76% (0.1 µmol/kg)
CCK-B receptor
  IC50: 2140 pM
[2]; dose 1 µmol/kg
  Gastric Acid Secretion Inhibitory Ratio/Dose: 83% (1 µmol/kg)

## Cc1ccc(C(=O)CN2C(=O)C(NC(=O)Nc3cccc(N(C)C)c3)N=C(c3ccccc3)c3ccccc32)cc1 (single isomer, unassigned; (+)) [Example 21, (+)-1-[2,3-Dihydro-1-(4'-methylphenacyl)-2-oxo-5-phenyl-1H-1,4-benzodiazepin-3-yl]-3-(3-dimethylaminophenyl)urea]
[1]
  Gastric Acid Secretion Inhibitory Ratio/Dose: 74% (0.1 µmol/kg)
CCK-B receptor
  IC50: 160 pM
[2]; dose 10 µmol/kg
  Gastric Acid Secretion Inhibitory Ratio/Dose: 90% (10 µmol/kg)

From patent EP0647632A1, “NOVEL BENZ[…]” (YAMANOUCHI PHARMACEUTICAL CO. LTD., priority 1992, dated 1994)
